# Assay results as given in ChEMBL document CHEMBL1127014, “Synthesis and evaluation of imidazo[1,5-a][1,4]benzodiazepine esters with high affinities and selectivities at "diazepam-insensitive" benzodiazepine receptors” (J Med Chem, 1993).
# Legend:
# [1] = target: GABA-A receptor; anion channel; assay: (§1) Binding affinity for Diazepam-Sensitive fraction of GABA-A benzodiazepine receptors; type: protein-complex assay
# [2] = target: GABA-A receptor; anion channel; assay: Binding affinity for Diazepam-Insensitive fraction of GABA-A benzodiazepine receptors; type: protein-complex assay, Rattus norvegicus
# [3] = target: T1, GABA-A receptor; anion channel (Rattus norvegicus) (UniProt O09028+P15431+P18506+P18508+P19969+P20236+P23574+P23576+P28471+P28473+P30191+P62813+P63079+P63138+Q91ZM7+Q9ES14); assay: GABA shift ratio at Diazepam sensitive fraction of GABA-A benzodiazepine receptor; type: protein-complex assay
# [4] = target: T1, GABA-A receptor; anion channel (Rattus norvegicus); assay: Selectivity for Diazepam insensitive compared to sensitive GABA-A benzodiazepine receptor fractions; type: protein-complex assay
# [5] = target: GABA-A receptor; anion channel; assay: as §1; type: protein-complex assay, Rattus norvegicus
# [6] = target: GABA-A receptor; anion channel; assay: Inhibition of Diazepam-Insensitive fraction of GABA-A benzodiazepine receptors; type: protein-complex assay, Rattus norvegicus
# [7] = target: GABA-A receptor; anion channel; assay: Inhibition of Diazepam-Insensitive faction of GABA-A benzodiazepine receptors; type: protein-complex assay, Rattus norvegicus
Compound,Ki [1],Ki [2],GABA shift [3],Ratio [4],Ki [5],IC50 [6],IC50 [7]
CN1Cc2c(C(=O)OC(C)(C)C)ncn2-c2ccc(N=C=S)cc2C1=O,0.0037 µM,0.0027 µM,1.35,0.73,–,–,–
CN1Cc2c(C(=O)OC(C)(C)C)ncn2-c2ccc(Br)cc2C1=O,–,0.0028 µM,1.06,0.17,0.016 µM,–,–
CCC(CC)OC(=O)c1ncn2c1CN(C)C(=O)c1cc(Cl)ccc1-2,0.0269 µM,0.123 µM,158,4.6,–,–,–
CN1Cc2c(C(=O)OC(C)(C)C)ncn2-c2ccc(I)cc2C1=O,0.007 µM,0.0015 µM,1.22,0.21,–,–,–
CN1Cc2c(C(=O)OC(C)(C)C)ncn2-c2ccccc2C1=O,0.0011 µM,0.0212 µM,105,19.2,–,–,–
CN1Cc2c(C(=O)OCCC(C)(C)C)ncn2-c2ccc(Cl)cc2C1=O,0.184 µM,–,201,–,–,> 1 µM,–
CN1Cc2c(C(=O)OC(C)(C)C)ncn2-c2ccc([N+](=O)[O-])cc2C1=O,–,0.0108 µM,1.46,0.77,0.014 µM,–,–
CCCOC(=O)c1ncn2c1CN(C)C(=O)c1cc(Cl)ccc1-2,0.0248 µM,0.0333 µM,128,1.3,–,–,–
CN1Cc2c(C(=O)OCC3CC3)ncn2-c2ccc(Cl)cc2C1=O,–,0.0398 µM,176,4.1,0.0097 µM,–,–
CCCOC(=O)c1ncn2c1CN(C)C(=O)c1sccc1-2,0.0014 µM,0.038 µM,–,27,–,–,–
CN1Cc2c(C(=O)OC(C)(C)C)ncn2-c2ccsc2C1=O [RO-194603],–,0.0026 µM,–,13,0.0002 µM,–,–
CCOC(=O)c1ncn2c1CN(C)C(=O)c1ccccc1-2 [RO-147437],–,0.214 µM,98,165,0.0013 µM,–,–
CCOC(=O)c1ncn2c1CN(C)C(=O)c1cc(Cl)ccc1-2 [Ro-151310],–,–,–,–,0.0054 µM,–,–
COC(=O)c1ncn2c1CN(C)C(=O)c1ccccc1-2,–,–,99,–,0.0063 µM,–,> 1 µM
CCOC(=O)c1ncn2c1C1CCCN1C(=O)c1cc(Cl)ccc1-2 (stereo not drawn) [RO-145975],0.072 µM,0.053 µM,–,0.73,–,–,–
COC(=O)c1ncn2c1CN(C)C(=O)c1sccc1-2,0.0009 µM,0.052 µM,–,57,–,–,–
CN1Cc2c(C(=O)OCC(C)(C)C)ncn2-c2ccc(Cl)cc2C1=O,–,0.3 µM,177,0.67,0.499 µM,–,–
COC(=O)c1ncn2c1CN(C)C(=O)c1cc(Cl)ccc1-2,–,0.123 µM,–,–,–,–,–
CN1Cc2c(C(=O)OC(C)(C)C)ncn2-c2ccc(N=[N+]=[N-])cc2C1=O,0.0021 µM,0.00043 µM,1.76,0.2,–,–,–
CN(C)N=Nc1ccc2c(c1)C(=O)N(C)Cc1c(C(=O)OC(C)(C)C)ncn1-2,–,–,1.12,–,3.49 µM,> 1 µM,–
CCOC(=O)c1ncn2c1[C@@H]1CCCN1C(=O)c1ccccc1-2,0.0009 µM,0.045 µM,–,50,–,–,–
CN1Cc2c(C(=O)OC(C)(C)C)ncn2-c2ccc(Cl)cc2C1=O,0.004 µM,0.0017 µM,116,0.4,–,–,–
CC(C)OC(=O)c1ncn2c1CN(C)C(=O)c1cc(Cl)ccc1-2,0.0105 µM,0.0088 µM,123,0.8,–,–,–
